From patent publication US4578400A, “Therapeutic composition and method for treatment of cardiovascular diseases” (priority 1982, dated 1986)

Experiments:
[1] = tested on: chloroform-induced arrhythmia (ventricular fibrillation); test: Effect on chloroform-induced arrhythmia; format: in vivo, male ddy mice; conditions: for Percent occurrence of ventricular fibrillation: control 100; for anti-arrhythmic potency compared with lidocaine (in words): 100 mg/kg oral vs lidocaine 10 mg/kg i.p.
Text: When they stopped breathing, they were thoracotomized to examine the occurrence of ventricular fribrillation. The results are noted in Table 2 as percent occurrence of ventricular fibrillation.

Acute toxicity = conditions: one week observation
Text: Male ddy mice weighing about 25 g were divided into groups of 10 animals and orally administered once with 3 g/kg of 5--HDA, 5--HDA--Na, 5--HDAE, 5--HDA--DHP or δ-DL, or intraperitoneally injected once with 1 g/kg of said compounds.

[2] = Solubility (physicochemical properties, Table 1)
[3] = target: T1, 3-hydroxy-3-methylglutaryl coenzyme A (HMG-Co A) reductase (Rattus norvegicus, UniProt P51639); test: Inhibition of HMG-CoA reductase activity; format: biochemical, rat (liver microsome); conditions: rat liver microsome; read-out: IC30 (amount necessary for inhibiting the enzymatic activity by 30%)
T1 sequence (P51639 1-887): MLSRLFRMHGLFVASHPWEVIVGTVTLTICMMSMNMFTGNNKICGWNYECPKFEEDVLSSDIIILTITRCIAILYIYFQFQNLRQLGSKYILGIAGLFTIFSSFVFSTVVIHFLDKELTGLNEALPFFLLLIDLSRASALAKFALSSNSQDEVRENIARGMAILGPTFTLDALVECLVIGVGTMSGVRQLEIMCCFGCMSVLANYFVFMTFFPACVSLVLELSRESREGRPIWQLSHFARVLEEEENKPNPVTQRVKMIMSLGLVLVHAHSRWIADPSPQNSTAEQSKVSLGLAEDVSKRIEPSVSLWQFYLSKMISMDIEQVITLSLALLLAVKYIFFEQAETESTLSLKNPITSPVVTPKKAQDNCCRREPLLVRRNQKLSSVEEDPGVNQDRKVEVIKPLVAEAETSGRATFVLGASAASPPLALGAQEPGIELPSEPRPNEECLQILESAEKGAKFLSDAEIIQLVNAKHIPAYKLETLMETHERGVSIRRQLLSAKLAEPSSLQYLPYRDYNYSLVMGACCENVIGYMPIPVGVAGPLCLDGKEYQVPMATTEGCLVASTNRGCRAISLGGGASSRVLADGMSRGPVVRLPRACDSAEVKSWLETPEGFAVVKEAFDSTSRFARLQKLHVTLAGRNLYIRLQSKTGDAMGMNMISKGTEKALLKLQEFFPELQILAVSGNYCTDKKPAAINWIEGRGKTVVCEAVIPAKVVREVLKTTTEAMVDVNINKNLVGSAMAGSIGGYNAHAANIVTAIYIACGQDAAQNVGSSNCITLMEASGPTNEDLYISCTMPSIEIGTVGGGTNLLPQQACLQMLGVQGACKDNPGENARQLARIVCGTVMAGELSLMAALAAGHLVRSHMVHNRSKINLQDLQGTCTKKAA
Text: Inhibition of the activity of 3-hydroxy-3-methylglutaryl coenzyme A (HMG-Co A) reductase

[4] = tested on: ouabain induced arrhythmia; test: Effect on ouabain induced arrhythmia; format: in vivo, male hartley guinea pigs; conditions: for relative time for extrasystole to occur / relative time for ventricular fibrillation to occur / relative time for cardiac arrest to occur: control = 100; for relative time for ventricular fibrillation to occur: *P < 0.05; for antiarrhythmic effects (in words): ouabain induced arrhythmia
Text: Effect on ouabain induced arrhythmia
The procedure described in Matsubara et al. (Folia Pharmacologica Japonica, 72, 557-571, 1976) was followed.
Male hartley guinea pigs were divided into groups of 8 animals and anesthetized with intraperitoneal urethane. Three groups were orally administered 5--HDA--Na, 5--HDAE and 5--HDA--DHP dissolved in distilled water. Another group was intravenously injected with 5--HDA--Na dissolved in physiological saline. One group was orally administered δ-DL emulsified in 5% aqueous arabic gum solution. One group was injected intravenously with lidocaine dissolved in physiological saline. For the respective routes of administration, control groups were administered the solvents used in administration of the test compounds. Thirty minutes after the oral administration and one minute after the intravenous injection, ouabain was infused into the jugular vein at a rate of 5 μg/kg/min until extrasystole, ventricular fibrillation and cardiac arrest appeared on a standard limb lead II of ECG. The results are shown in Table 3, with the time necessary for the respective symptoms to occur in the control groups taken as 100.

[5] = Lowering serum lipid levels in Triton-induced hyperlipidemic rats; format: in vivo, male Wistar rats; conditions: for inhibition rate, total cholesterol (serum) / inhibition rate, triglyceride (serum): 100 mg/kg oral, four times, against control, 10 hours after Triton WR-1339, *P < 0.05; for antilipidemic effects compared with Clofibrate (in words): 100 mg/kg, oral
Experimental: After 10 hours, blood samples were drawn to determine the serum levels of total cholesterol and triglyceride.

[6] = Lowering serum cholesterol levels in hyperlipidemic rabbits; format: in vivo, male Japanese white rabbits; conditions: 100 mg/kg oral daily for 7 days
Text: Male Japanese white rabbits weighing about 2.5 kg were fed on a solid diet containing 1% cholesterol (RC-4, Nippon Crea Co., Ltd.) for 10 weeks until hypercholesterolemia fully developed. The rabbits were then divided into groups of 5 animals, and 5--HDA--Na or δ-DL was orally admininistered daily for 7 days, either as a solution or as an emulsion in 5% aqueous arabic gum. Three hours after the last administration, blood was drawn to determine the serum level of cholesterol.

[7] = tested on: ventricular fibrillation after coronary artery ligation; test: Antiarrhythmic effects on myocardial infarction (coronary ligation); format: in vivo, dogs; conditions: before ligation = 100, control 41
Text: Antiarrhythmic effects on myocardial infarction
The method described by Shinohara (Jap. Circul. J., 32, 1269-1281, 1968) was used. Dogs were divided into groups of 5 animals, anesthetized with intravenous pentobarbital and were thoracotomized under artificial respiration, and a platinum bipolar electrode was inserted on the wall of the right atrium. Then the sinus node was crushed and the animals were subjected to pacing (2.5 Hz, 3 msec, 3.5-8 V) with an electronic stimulator. The left anterior descending coronary artery was doubly ligated at a site 2 cm away from its origin (A. S. Harris, Circulation, 1, 1318, 1950). Then 5--HDA--Na and lidocaine were injected into the femoral vein of the respective dogs. Using an electrode inserted in an ischemic zone in the left ventricle, the animals were given 15 to 20 successive electrical shocks before the ligation and 30 minutes after the ligation and administration. The threshold level necessary for inducing ventricular fibrillation was determined for each group of animals and shown in Table 4, with the values before the ligation taken as 100.

[8] = tested on: chloroform-induced arrhythmia (ventricular fibrillation); conditions: stated without own data; cited from earlier work
[9] = 100 mg/kg, oral, 15 min before chloroform, *P < 0.05
[10] = oral, 100 mg/kg, *P < 0.05 where starred

| Structure (SMILES) | anti-arrhythmic potency compared with lidocaine (in words) [1] | anti-arrhythmic effects (in words) ([1]; 100 mg/kg, oral) | Percent occurrence of ventricular fibrillation [1, 9] | acute toxicity: abnormality (Acute toxicity; 1 g/kg intraperitoneal once) | acute toxicity: death (Acute toxicity; 1 g/kg intraperitoneal once) | acute toxicity: abnormality (Acute toxicity; 3 g/kg oral once) | acute toxicity: death (Acute toxicity; 3 g/kg oral once) | solubility in acetone [2] | solubility in benzene [2] | solubility in chloroform [2] | solubility in methanol [2] | solubility in water [2] | relative time for extrasystole to occur ([4]; oral, 100 mg/kg) | relative time for ventricular fibrillation to occur ([4]; oral, 100 mg/kg) | relative time for cardiac arrest to occur [4, 10] | antiarrhythmic effects (in words) [4] | inhibition rate, total cholesterol (serum) [5] [%] | inhibition rate, triglyceride (serum) [5] [%] | antilipidemic effects compared with Clofibrate (in words) [5] | other results |
| --- | --- | --- | --- | --- | --- | --- | --- | --- | --- | --- | --- | --- | --- | --- | --- | --- | --- | --- | --- | --- |
| CCCCCC(O)CCCC(=O)O (stereo not shown) [5-HDA, 5-hydroxy-decanoic acid] | more potent than lidocaine | significant anti-arrhythmic effects | 30 | no abnormality occurred | no animal died | no abnormality occurred | no animal died | easily | easily | easily | easily | sparingly |  |  |  |  |  |  |  | Percent occurrence of ventricular fibrillation ([1]; 50 mg/kg, oral, 15 min before chloroform): 60 |
| CC[C@H](C)C(=O)O[C@H]1CCC=C2C=C[C@H](C)[C@H](CC[C@@H]3C[C@@H](O)CC(=O)O3)[C@H]21 [Compactin, reference compound] |  |  |  |  |  |  |  |  |  |  |  |  |  |  |  |  |  |  |  | IC30 [3]: 30 µM |
| CCCCCC(O)CCCC(=O)OCC (stereo not shown) [5-HDAE, Ethyl-5-hydroxy-decanoate] | more potent than lidocaine | significant anti-arrhythmic effects | 30 | no abnormality occurred | no animal died | no abnormality occurred | no animal died | easily | easily | easily | easily | sparingly | 151 | 146 | 132 | significant antiarrhythmic effects | 19 | 17 | equipotent to or stronger than the effect of the known anti-lipidemic agent, Clofibrate |  |
| CCCCCC1CCCC(=O)O1 (stereo not drawn) [δ-DL, δ-decalactone] | more potent than lidocaine | significant anti-arrhythmic effects | 30 | no abnormality occurred | no animal died | no abnormality occurred | no animal died | easily | easily | easily | easily | insoluble | 157 | 137 | 140 | significant antiarrhythmic effects | 23 | 11 | equipotent to or stronger than the effect of the known anti-lipidemic agent, Clofibrate | serum level of total cholesterol (in words) [6]: lowered the serum level of total cholesterol; Total serum cholesterol ([6]; 3 h after last administration, control 1,394, *P < 0.05): 1,141 mg/dl; solubility in hexane ([2]; hexane): easily |
| CCN(CC)CC(=O)Nc1c(C)cccc1C [Lidocaine, reference compound] |  |  |  |  |  |  |  |  |  |  |  |  |  |  |  |  |  |  |  | Percent occurrence of ventricular fibrillation ([1]; 10 mg/kg, intraperitoneally 5 minutes before chloroform): 40; relative time for cardiac arrest to occur ([4]; i.v., 10 mg/kg): 118; relative time for extrasystole to occur ([4]; i.v., 10 mg/kg): 133; relative time for ventricular fibrillation to occur ([4]; i.v., 10 mg/kg): 129; Threshold level for inducing ventricular fibrillation, 30 min after ligation ([7]; 0.3 mg/kg i.v.): 68; Threshold level for inducing ventricular fibrillation, 30 min after ligation ([7]; 1.0 mg/kg i.v., *P < 0.05): 84; effectiveness by oral administration (in words) [8]: not effective by oral administration |
| CCCCCC(O)CCCC(=O)OCC(O)CO (stereo not shown) [5-HDA-DHP, 2',3'-dihydroxy-propyl-5-hydroxydecanoate] | more potent than lidocaine | significant anti-arrhythmic effects | 20 | no abnormality occurred | no animal died | no abnormality occurred | no animal died | easily |  | easily | easily | soluble | 193 | 139 | 122 | significant antiarrhythmic effects | 19 | 18 | equipotent to or stronger than the effect of the known anti-lipidemic agent, Clofibrate |  |
| CCOC(=O)C(C)(C)Oc1ccc(Cl)cc1 [Clofibrate, reference compound] |  |  |  |  |  |  |  |  |  |  |  |  |  |  |  |  | 14 | 16 |  |  |
